Drawing on patent US9145392B2, “Imidazole amines as modulators of kinase activity” (Merck Patent GmbH, priority 2011, dated 2015), this text covers IC50 for 19 compounds.

For assay [1], the target named is P70S6K (T412E mutant) (Homo sapiens (Human), UniProt P23443, T412E). The assay can be described thus: P70S6K enzyme assay. In kind it is biochemical. The conditions noted are these: read-out: IC50 p70S6K. In a few lines:
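Phosphorylated product and substrate peptide separated by microfluidic capillary electrophoresis (Caliper LabChip 3000), product peaks resolving before substrate.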

The target in assay [2] is His-AKT (Full Length) (Homo sapiens (Human), UniProt P31749). The assay can be described thus: AKT enzyme assay. In kind it is biochemical. The conditions noted are these: read-out: IC50 AKT.

Where only a bound is given, the exact number is not on record here.

Sequence of P70S6K (T412E mutant) (P23443 whole entry T412E): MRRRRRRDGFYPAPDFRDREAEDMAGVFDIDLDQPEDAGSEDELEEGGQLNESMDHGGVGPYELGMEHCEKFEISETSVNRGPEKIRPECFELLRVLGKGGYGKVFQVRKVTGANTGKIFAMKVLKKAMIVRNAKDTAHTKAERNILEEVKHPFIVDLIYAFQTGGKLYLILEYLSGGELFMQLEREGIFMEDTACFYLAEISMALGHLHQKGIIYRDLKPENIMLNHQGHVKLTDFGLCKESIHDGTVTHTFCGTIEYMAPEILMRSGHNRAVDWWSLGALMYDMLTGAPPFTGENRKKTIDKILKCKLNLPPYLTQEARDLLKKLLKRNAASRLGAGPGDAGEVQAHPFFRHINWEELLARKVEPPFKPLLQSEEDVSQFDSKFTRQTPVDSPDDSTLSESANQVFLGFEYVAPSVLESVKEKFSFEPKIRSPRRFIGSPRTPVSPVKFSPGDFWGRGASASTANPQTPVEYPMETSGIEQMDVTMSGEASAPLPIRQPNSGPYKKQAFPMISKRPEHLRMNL
Sequence of His-AKT (Full Length) (P31749 whole entry): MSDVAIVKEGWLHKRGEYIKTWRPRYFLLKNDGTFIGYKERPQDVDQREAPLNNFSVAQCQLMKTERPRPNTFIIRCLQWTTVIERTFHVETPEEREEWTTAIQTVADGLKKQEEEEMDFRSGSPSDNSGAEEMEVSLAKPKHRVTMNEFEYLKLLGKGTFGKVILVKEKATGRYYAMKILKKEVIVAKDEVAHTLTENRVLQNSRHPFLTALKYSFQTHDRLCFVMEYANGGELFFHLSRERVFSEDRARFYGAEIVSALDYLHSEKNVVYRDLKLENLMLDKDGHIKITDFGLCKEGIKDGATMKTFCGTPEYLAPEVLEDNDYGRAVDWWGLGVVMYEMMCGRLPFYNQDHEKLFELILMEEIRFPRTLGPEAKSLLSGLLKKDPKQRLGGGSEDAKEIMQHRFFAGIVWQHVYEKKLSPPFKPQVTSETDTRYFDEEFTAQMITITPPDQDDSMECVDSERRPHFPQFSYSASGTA

A word on the IC50: it is the midpoint of a concentration-inhibition curve. Regarding `Cc1cc(-c2cn(CC3CNC3)c(C3CCN(c4ncnc(N)c4OC(C)C)CC3)n2)ccc1F` [Compound 187, 6-(4-(1-(azetidin-3-ylmethyl)-4-(4-fluoro-3-methylphenyl)-1H-imidazol-2-yl)piperidin-1-yl)-5-isopropoxypyrimidin-4-amine], the IC50 in assay [1] turned out to be 3.4 nM; in assay [2], 6.4 nM.

Turning to `CCc1c(N)ncnc1N1CCC(c2nc(-c3ccc(F)c(C)c3)cn2CC2CNC2)CC1` [Compound 188, 6-(4-(1-(azetidin-3-ylmethyl)-4-(4-fluoro-3-methylphenyl)-1H-imidazol-2-yl)piperidin-1-yl)-5-ethylpyrimidin-4-amine], the IC50 in assay [1] was 2.1 nM; in assay [2], 2.3 nM.

In the case of `Cc1cc(-c2cn(CC3CNC3)c(C3CCN(c4ncnc(N)c4C(C)C)CC3)n2)ccc1F` [Compound 189, 6-(4-(1-(azetidin-3-ylmethyl)-4-(4-fluoro-3-methylphenyl)-1H-imidazol-2-yl)piperidin-1-yl)-5-isopropylpyrimidin-4-amine], the half-maximal inhibitory concentration (IC50) stood at 1.1 nM in assay [1] and 4.5 nM in assay [2].

For `Cc1cc(-c2cn(CC3CNC3)c(C3CCN(c4ncnc(N)c4C#N)CC3)n2)ccc1F` [Compound 191, 4-amino-6-(4-(1-(azetidin-3-ylmethyl)-4-(4-fluoro-3-methylphenyl)-1H-imidazol-2-yl)piperidin-1-yl)pyrimidine-5-carbonitrile], the IC50 in assay [1] was determined as 7.4 nM; in assay [2], 15 nM.

As to `CNc1ncnc(N2CCC(c3nc(-c4ccnc(C(F)(F)F)c4)cn3CCN3CCC3)CC2)c1Cl` [Compound 192, 6-(4-(1-(2-(azetidin-1-yl)ethyl)-4-(2-(trifluoromethyl)pyridin-4-yl)-1H-imidazol-2-yl)piperidin-1-yl)-5-chloro-N-methylpyrimidin-4-amine], the IC50 stood at 2700 nM in assay [1] and 7200 nM in assay [2].

As to `CNc1ncnc(N2CCC(c3nc(-c4ccc(F)c(C)c4)cn3CC3CNC3)CC2)c1Cl` [Compound 193, (6-{4-[1-Azetidin-3-ylmethyl-4-(4-fluoro-3-methyl-phenyl)-1H-imidazol-2-yl]-piperidin-1-yl}-5-chloro-pyrimidin-4-yl)-methyl-amine], the IC50 was found to be 1300 nM in assay [1] and 5700 nM in assay [2].

As for `Cc1cc(-c2cn(CC3CNC3)c(C3CCC(c4ncnc(N)c4C(C)C)CC3)n2)ccc1F` (centres unmarked) [Compound 194, 6-(4-(1-(azetidin-3-ylmethyl)-4-(4-fluoro-3-methylphenyl)-1H-imidazol-2-yl)cyclohexyl)-5-isopropylpyrimidin-4-amine], the IC50 in assay [1] turned out to be 3.4 nM; in assay [2] it was 16 nM.

Regarding `CCc1c(N)ncnc1N1CCC(c2nc(-c3ccc(F)cc3)cn2CCN2CCOCC2)CC1` [Compound 195, 5-Ethyl-6-{4-[4-(4-fluoro-phenyl)-1-(2-morpholin-4-yl-ethyl)-1H-imidazol-2-yl]-piperidin-1-yl}-pyrimidin-4-ylamine], the IC50 in assay [1] was 16 nM; in assay [2], more than 1000 nM.

With `CCc1c(N)ncnc1N1CCC(c2nc(-c3ccc(F)c(F)c3)cn2CCN2CCOCC2)CC1` [Compound 196, 6-{4-[4-(3,4-Difluoro-phenyl)-1-(2-morpholin-4-yl-ethyl)-1H-imidazol-2-yl]-piperidin-1-yl}-5-ethyl-pyrimidin-4-ylamine], the half-inhibitory concentration (IC50) in assay [1] amounted to 5.5 nM; in assay [2], 370 nM.

`CCc1c(N)ncnc1N1CCC(c2nc(-c3ccc(F)cc3)cn2CCN2CC3(COC3)C2)CC1` [Compound 197, 5-Ethyl-6-(4-{4-(4-fluoro-phenyl)-1-[2-(2-oxa-6-aza-spiro[3.3]hept-6-yl)-ethyl]-1H-imidazol-2-yl}-piperidin-1-yl)-pyrimidin-4-ylamine]: the IC50 is 6.3 nM in assay [1] and 130 nM in assay [2].

Turning to `CCc1c(N)ncnc1N1CCC(c2nc(-c3ccc(F)c(F)c3)cn2CCN2CC3(COC3)C2)CC1` [Compound 198, 6-(4-{4-(3,4-Difluoro-phenyl)-1-[2-(2-oxa-6-aza-spiro[3.3]hept-6-yl)-ethyl]-1H-imidazol-2-yl}-piperidin-1-yl)-5-ethyl-pyrimidin-4-ylamine], the IC50 in assay [1] turned out to be 11 nM; in assay [2] it was 255 nM.

As for `CCc1c(N)ncnc1N1CCC(c2nc(-c3ccc(F)c(F)c3)cn2CCN2CC(F)C2)CC1` [Compound 199, 6-(4-{4-(3,4-Difluoro-phenyl)-1-[2-(3-fluoro-azetidin-1-yl)-ethyl]-1H-imidazol-2-yl}-piperidin-1-yl)-5-ethyl-pyrimidin-4-ylamine], the IC50 worked out at 12 nM in assay [1] and 385 nM in assay [2].

As for `CCc1c(N)ncnc1N1CCC(c2nc(-c3ccc(F)cc3)cn2CCN2CC(F)C2)CC1` [Compound 200, 5-Ethyl-6-{4-[1-[2-(3-fluoro-azetidin-1-yl)-ethyl]-4-(4-fluoro-phenyl)-1H-imidazol-2-yl]-piperidin-1-yl}-pyrimidin-4-ylamine], the IC50 was 21 nM in assay [1] and 640 nM in assay [2].

Regarding `CCc1c(N)ncnc1N1CCC(c2nc(-c3ccc(F)cc3)cn2CCN2CCC3(COC3)C2)CC1` [Compound 201, 5-Ethyl-6-(4-{4-(4-fluoro-phenyl)-1-[2-(2-oxa-6-aza-spiro[3.4]oct-6-yl)-ethyl]-1H-imidazol-2-yl}-piperidin-1-yl)-pyrimidin-4-ylamine], the IC50 was 16 nM in assay [1] and more than 1000 nM in assay [2].

Regarding `CCc1c(N)ncnc1N1CCC(c2nc(-c3ccc(F)c(F)c3)cn2CCN2CCC3(COC3)C2)CC1` [Compound 202, 6-(4-{4-(3,4-Difluoro-phenyl)-1-[2-(2-oxa-6-aza-spiro[3.4]oct-6-yl)-ethyl]-1H-imidazol-2-yl}-piperidin-1-yl)-5-ethyl-pyrimidin-4-ylamine], the IC50 was found to be 9 nM in assay [1] and 89 nM in assay [2].

For `CCc1c(N)ncnc1N1CCC(c2nc(-c3ccc(F)c(F)c3)cn2CCN2CCC23COC3)CC1` [Compound 203, 6-(4-{4-(3,4-Difluoro-phenyl)-1-[2-(6-oxa-1-aza-spiro[3.3]hept-1-yl)-ethyl]-1H-imidazol-2-yl}-piperidin-1-yl)-5-ethyl-pyrimidin-4-ylamine], the values for the IC50 in assay [1] and in assay [2] were 30 nM and 2500 nM, respectively.

As to `CCc1c(N)ncnc1N1CCC(c2nc(-c3ccc(F)cc3)cn2CCN2CCC23COC3)CC1` [Compound 204, 5-Ethyl-6-(4-{4-(4-fluoro-phenyl)-1-[2-(6-oxa-1-aza-spiro[3.3]hept-1-yl)-ethyl]-1H-imidazol-2-yl}-piperidin-1-yl)-pyrimidin-4-ylamine], the IC50 in assay [1] worked out at 37 nM; in assay [2], 3600 nM.

As for `N#Cc1c(N)ncnc1N1CCC(c2nc(-c3cnc(F)c(Cl)c3)cn2CCN2CCC2)CC1` [Compound 205, 4-Amino-6-{4-[1-(2-azetidin-1-yl-ethyl)-4-(5-chloro-6-fluoro-pyridin-3-yl)-1H-imidazol-2-yl]-piperidin-1-yl}-pyrimidine-5-carbonitrile], the IC50 in assay [1] came to 0.8 nM; in assay [2] it was 1.3 nM.

Turning to `N#Cc1c(N)ncnc1N1CCC(c2nc(-c3ccnc(F)c3)cn2CCN2CCC2)CC1` [Compound 206, 4-Amino-6-{4-[1-(2-azetidin-1-yl-ethyl)-4-(2-fluoro-pyridin-4-yl)-1H-imidazol-2-yl]-piperidin-1-yl}-pyrimidine-5-carbonitrile], the figures for the IC50 in assay [1] and in assay [2] were 2.4 nM and 13 nM, respectively.
